Reference: patent US7018836B1, “P-TEFb compositions, methods and screening assays” (priority 1996, dated 2006)

Key:
human P-TEFb = target: T1, human P-TEFb (Homo sapiens, UniProt P50750); assay: CTD kinase assay with immunoprecipitated human P-TEFb and Drosophila RNA polymerase II as substrate (FIG. 7B); format: biochemical; conditions: for IC50: immunoprecipitated human P-TEFb, 10 μM ATP, read-out: 50% inhibition point, CTD kinase assay
T1 construct: endogenous in cells; host or cells: HeLa nuclear extract (HNE), immunoprecipitate on anti-PITALRE-CT beads
Protocol: For every 50 μl of HNE, 10 μl of protein A beads containing 1 μg of bound IgG was used. After depletion of HNE, the antibody-containing beads were extensively washed with 100 times the bead volume of 20 mM HEPES (pH 7.6), 0.5% NP-40, 1% Triton X-100, and 5 mM DTT, 600 mM or indicated concentration of NaCl, and then washed with 25 times the bead volume of 20 mM HEPES (pH 7.6) and 1 mM DTT. The amounts of the washed beads used for the kinase assays and silver staining were the equivalent of 1 μl and 10 μl of HNE, respectively.
CTD kinase assays were performed in a […] reaction containing 20 mM HEPES (pH7.6), 10 μM ATP, 5 μCi [γ-^32P]ATP, 10 ng Drosophila RNA polymerase II, 5 mM MgCl2, and purified Drosophila P-TEFb or immunoprecipitated human P-TEFb. In the reactions containing DRB it was added to 50 μM unless other indicated amounts were used. The reactions were incubated at 30° C. for 1 hour.

[1] = tested on: runoff transcription from HIV-1 LTR in HNE (human P-TEFb); assay: Transcription of HIV LTR template in HeLa nuclear extract (HNE), 633-nt runoff (FIG. 7A); format: biochemical; conditions: for IC50: HNE, HIV LTR template, read-out: 50% inhibition point, transcription assay
Protocol: (§1) The transcription template (Nco I-digested pLTR-4/CAT vector containing the HIV-1 LTR from −153 to +80) was used in a pulse-chase transcription experiment. Reactions (12 μl total; 20 mM HEPES, pH 7.6, 7 mM MgCl2, 20 μg/ml DNA template, 3 μl HNE, 64 mM KCl, with 50 μM DRB or 0.3 μl Drosophila P-TEFb (Marshall et al., 1996) as indicated) were pre-incubated for 20 minutes at 30° C., pulsed for 2 minutes by adding ATP, GTP, UTP to 600 μM each and 5 μCi [α-^32P]CTP (˜0.1 mM), and chased for 5 minutes by adding CTP to 1.2 mM. Reactions were stopped, phenol extracted and analyzed on a 6% polyacrylamide gel as described (Marshall and Price, 1995). pLTR-TAR-Luc and pLTR-DTAR-Luc plasmids were digested with Eco RI to generate TAR and DTAR template that were used in the studies. The TAR template contains HIV-1 LTR from −475 to +76, while the DTAR template contains HIV-1 LTR from −475 to +19. Transcription with TAR and DTAR templates generates runoffs of 694 and 646 nucleotides, respectively. The transcription reaction mix contained 20 mM HEPES (pH7.6), 7 mM MgCl2, 60 mM KCl, 0.5 μl HNE (or depHNE as indicated), 20 μg/ml TAR template (or DTAR template as indicated), indicated amount of HIV-1 Tat (86 residue HIV-1 Tat followed by a streptavidin binding tag at its carboxyl terminus) and DRB. The reaction mix was pre-incubated for 15 minutes at 30° C. and the transcription was started by adding nucleotides to final concentrations of 50 μM ATP, 50 μM GTP, 50 μM UTP, 10 μM CTP, and 5 μCi [α-^32P]CTP (˜0.1 mM), and continuously labeled for 20 minutes, or by adding nucleotides to final concentrations of 50 μM ATP, 50 μM GTP, 50 μM UTP, and 5 μCi [α-^32P]CTP (˜0.1 mM), and pulsed for 2 minutes. The reactions were stopped and reaction mix were phenol-extracted. The transcripts were then analyzed on a 6% polyacrylamide gel as described (Marshall and Price, 1995).

[2] = tested on: CTD kinase found in the preinitiation complex; assay: Phosphorylation of RNA polymerase II in isolated preinitiation complexes (western blot); format: biochemical, Drosophila; conditions: 20 μM DRB
Protocol: Preinitiation complexes were formed on an immobilized actin template digested with HpaII (780 nt runoff) as described in Marshall and Price (Marshall and Price, 1992). The preinitiation complexes were isolated, washed once with 55 mM HKB (20 mM HEPES, 55 mM KCl and 200 μg/ml BSA) and resuspended into 55 mM HKB. Transcription was initiated by the addition of a pulse solution, which contained 5 μCi of [α-^32P]CTP and brought the reaction mixture to 600 μM in ATP, GTP and UTP and 2 mM MnCl2. MnCl2 increased the rate of initiation of preinitiation complexes, thereby, increasing the number of polymerases in early elongation complexes after a short pulse. After 15 seconds the reaction was stopped by the addition of EDTA to 10 mM.
Preinitiation complexes were formed on an immobilized actin template as described above in Methods, Section 3. […] Incubation of the preinitiation complexes with ATP caused a significant shift of the polymerase to the IIo form. The antibodies used to detect the large subunit of RNA polymerase II reacted more strongly with the […] of the large subunit than either the phosphorylated IIo form or the truncated IIb form. This phosphorylation was unaffected by the presence of 20 μM DRB.

Drosophila TFIIH = assay: CTD kinase assay with Drosophila TFIIH; format: biochemical; conditions: 20 μM DRB
Protocol: 0.4 μl of purified RNA polymerase II and various protein samples were mixed in 18 μl of 55 mM HMK. The reaction was then initiated by the addition of 2 μl of a solution containing 2 μCi of [γ-^32P]ATP (ICN) and unlabeled ATP at 10 μM, or only unlabeled ATP at concentrations from 1 to 100 μM or other NTPs or dNTPs at concentrations of 1 to 100 μM. Reactions were incubated for the indicated times at 23° C. and then terminated with SDS loading buffer. Samples were analyzed on a 6–15% SDS polyacrylamide gel which was silver stained, dried and subjected to autoradiography if the assay contained label.
To determine whether P-TEFb was related to the protein kinase associated with TFIIH (Roy et al., 1994; Feaver et al., 1994; Cismowski et al., 1995; Serizawa et al., 1995; Shiekhattar et al., 1995), P-TEFb was compared with Drosophila TFIIH purified from Drosophila embryos by the method of Austin and Biggin (1996).

[3] = tested on: transcription from HIV-1 LTR; assay: In vitro Tat transactivation in HNE with TAR and DTAR templates (FIG. 8); format: biochemical, human
Protocol: as §1, with “The reaction mix was pre-incubated for 15 minutes at 30° C. and the transcription was started by adding nucleotides to final concentrations of 50 μM ATP, 50 μM GTP, 50 μM UTP, 10 μM CTP, and 5 μCi [α-^32P]CTP (˜0.1 mM), and continuously labeled for 20 minutes, or by adding nucleotides to final concentrations of 50 μM ATP, 50 μM GTP, 50 μM UTP, and 5 μCi [α-^32P]CTP (˜0.1 mM), and pulsed for 2 minutes. The reactions were stopped and reaction mix were phenol-extracted.” left out

[4] = tested on: mammalian cells in culture; conditions: DRB added to mammalian cells in culture; cited from earlier work
P-TEFb = assay: Phosphorylation by P-TEFb of RNA polymerase II in high salt washed early elongation complexes (western blot); format: biochemical, Drosophila; conditions: 20 μM DRB

T1 sequence (P50750 whole entry): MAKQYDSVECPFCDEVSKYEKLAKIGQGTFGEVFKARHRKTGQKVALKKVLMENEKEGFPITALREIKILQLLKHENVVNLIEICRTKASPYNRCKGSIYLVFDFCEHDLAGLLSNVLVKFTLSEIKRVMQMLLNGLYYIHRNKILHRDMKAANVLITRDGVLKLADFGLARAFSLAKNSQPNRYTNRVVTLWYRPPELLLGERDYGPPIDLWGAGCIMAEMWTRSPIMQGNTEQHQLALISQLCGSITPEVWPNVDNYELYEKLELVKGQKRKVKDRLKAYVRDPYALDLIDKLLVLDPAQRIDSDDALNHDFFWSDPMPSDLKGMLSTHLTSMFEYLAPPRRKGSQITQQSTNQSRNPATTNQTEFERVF
T1 sequence (O60563 whole entry partner): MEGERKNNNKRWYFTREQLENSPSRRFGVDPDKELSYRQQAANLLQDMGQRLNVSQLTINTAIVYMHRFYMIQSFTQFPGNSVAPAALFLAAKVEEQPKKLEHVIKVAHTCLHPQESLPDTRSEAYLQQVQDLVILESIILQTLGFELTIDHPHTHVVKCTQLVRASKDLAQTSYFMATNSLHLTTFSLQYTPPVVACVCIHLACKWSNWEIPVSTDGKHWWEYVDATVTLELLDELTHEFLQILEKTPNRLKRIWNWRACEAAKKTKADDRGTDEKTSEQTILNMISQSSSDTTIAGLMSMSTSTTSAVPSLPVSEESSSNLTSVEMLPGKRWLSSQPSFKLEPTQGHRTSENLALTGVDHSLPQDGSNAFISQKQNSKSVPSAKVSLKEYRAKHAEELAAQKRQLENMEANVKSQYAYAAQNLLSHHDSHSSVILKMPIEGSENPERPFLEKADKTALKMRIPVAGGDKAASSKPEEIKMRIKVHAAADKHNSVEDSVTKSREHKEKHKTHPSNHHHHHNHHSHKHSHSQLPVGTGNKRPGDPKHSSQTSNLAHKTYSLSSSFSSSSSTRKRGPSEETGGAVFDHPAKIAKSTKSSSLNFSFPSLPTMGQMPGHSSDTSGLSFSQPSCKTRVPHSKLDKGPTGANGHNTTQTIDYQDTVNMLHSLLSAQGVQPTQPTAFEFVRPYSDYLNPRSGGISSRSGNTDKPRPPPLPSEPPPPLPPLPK

Compound | ratio of 50% inhibition points (H-8/DRB), CTD kinase assay (human P-TEFb) | IC50 (human P-TEFb) [µM] | ratio of 50% inhibition points (H-8/DRB), transcription assay [1] | IC50 [1] [µM] | phosphorylation of RNA polymerase II to IIo in preinitiation complexes incubated with ATP [2] | sensitivity of CTD kinase activity of TFIIH (Drosophila TFIIH) | effect of DRB on Tat-stimulated runoff ([3]; 50 μM DRB) | sensitivity to DRB of the effect of Tat on initiation ([3]; pulse-only protocol) | inhibition in the production of mature mRNA [4] [%] | sensitivity of phosphorylation by beads containing PITALRE (human P-TEFb; 50 μM DRB) | ability of P-TEFb to phosphorylate RNA polymerase II in an early elongation complex (P-TEFb)
CNCCNS(=O)(=O)c1cccc2cnccc12 [H-8] | 25 | 16 | 23 | 23 |  |  |  |  |  |  | 
OC[C@H]1O[C@@H](n2cnc3cc(Cl)c(Cl)cc32)[C@H](O)[C@@H]1O [DRB, 5,6-dichloro-1-β-D-ribofuranosylbenzimidazole] |  | 0.65 |  | 1 | unaffected | unaffected | mostly inhibited | not sensitive | 95 | sensitive | inhibited
